# Data as given in patent publication US20240139185A1, “COMPOUNDS THAT PARTICIPATE IN COOPERATIVE BINDING AND USES THEREOF” (Revolution Medicines, Inc., priority 2018, published 2024).
# How the values were obtained:
# cyclophilin A (CYPA) = cyclophilin A (CYPA) (Homo sapiens, UniProt P62937); test: CYPA-compound binary complex formation by SPR; details: read-out: CYPA Binding Affinity
# How it was run: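 Steady-state fit of SPR responses gave binding affinity. Analyte series: 50 μM downward, 2-fold, 10 points, running buffer HBS-P+ (0.05% Tween20, pH7.4, 2% DMSO), 60 s on/60 s off. Surface: biotinylated CypA-Avi captured at 4 μg/ml against a reference cell, regenerated with NaOH/guanidine.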
# KRAS-G12C = biological target: T1, KRAS-G12C (Homo sapiens, UniProt P01116+P62937, G12C); test: Percentage of crosslinking to KRAS-G12C in the presence of BME and CYPA (TOF-MS); type: biochemical; details: 5 min incubation; compound 2 μM, CypA 5 μM, G12C-GMPNP 0.5 μM, BME
# T1 construct: CypA 1-165 (final concentration 5 μM)
# Method: • 1. 10×Incubation buffer: 125 mM HEPES pH 7.4, 750 mM NaCl, 10 mM MgCl2 • 2. 50 μM Protein A stock (CypA) in incubation buffer • 3. 5 μM Protein B (G12C-GMPNP) stock in incubation buffer • 4. 20 μM compound stock in 1×Incubation buffer with 10% DMSO • 5. 25 mM BME stock solution (prepared by diluting the BME stock in Milli Q water)
# CypA 1-165 (final concentration 5 μM), test compound (final concentration 2 μM) and G12C-GMPNP (final concentration 0.5 μM) were incubated in the incubation buffer ([…]) for the requisite amount of time at room temperature. The samples were quenched with formic acid, final concentration 0.5%. 10 μL aliquots were injected to TOF-MS.
# Sequence of Addition for a Final Incubation Volume of 50 μL • 1. 5 μL 10×incubation buffer • 2. 28 ul H2O • 3. 2 μL from 25 mM BME stock • 4. 5 μL CypA at 50 uM • 5. 5 μL from 5 μM G12C-GMPNP • 6. 5 μL compound from 20 μM compound stock
# LC-MS is performed on an Agilent 6230 TOF-LC mass spectrometer equipped with an electrospray probe operated in positive ionization mode. 10 μL samples are injected on a Sepax Bio-C4, 300 Å, 2.1×100 mm column. The mobile phase is 0.1% (vol/vol) formic acid and 0.1% 1 mM ammonium formate in 95% water, 4.8% acetonitrile (A) and 0.1% (vol/vol) formic acid and 0.1% 1 mM ammonium formate in 95% acetonitrile and 4.8% water (B). The separation is performed by a 9 min total gradient consisting of 5 min linear gradient from 25% to 50% B, and a wash at 100% B for 1.25 min, all at a flow rate of 0.6 mL/min (see attached timetable below). Mass spectrometer source conditions were capillary voltage, 4,000 V; cone voltage, 120 V; source temperature, 275° C.; scan range, 100-2,000 a.m.u. with a cycle time of 1 s.
# The observed mass is generated by averaging the major peak in the total ion current (TIC). The charge-state series of the species are deconvoluted using Agilent MassHunter Bioconfirm using maximum entropy setting (range is set to 17000-23000 Da). […]
# Sequence of cyclophilin A (CYPA) (P62937 whole entry): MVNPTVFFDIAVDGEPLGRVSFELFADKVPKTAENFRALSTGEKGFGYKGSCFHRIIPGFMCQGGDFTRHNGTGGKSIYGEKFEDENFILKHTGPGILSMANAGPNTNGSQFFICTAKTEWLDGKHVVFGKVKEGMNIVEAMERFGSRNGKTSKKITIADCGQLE
Kd (cyclophilin A (CYPA)),"% Crosslinking with KRAS-G12C-GTP in presence of CYPA, 5 min incubation (KRAS-G12C)",Structure (SMILES)
≤ 5 µM,27%,CC1COC(=O)C2CCCN(N2)C(=O)C(NC(=O)C(C(C)C)N(C)C(=O)C2CN(C(=O)CCl)C2)Cc2cc(O)cc(c2)-c2ccc3c(c2)c(cn3CC2COC2)C1 (mixture of isomers) [Compound 226]
≤ 5 µM,83%,"CC1COC(=O)C2CCCN(N2)C(=O)C(NC(=O)C(C(C)C)N(C)C(=O)C2CN(C(=O)CCl)C2)Cc2cc(O)cc(c2)-c2ccc3c(S(C)(=O)=O)cn(c3c2)C1 (single isomer, unassigned) [Compound 110]"
